Results on three molecules are retold here after patent US4576945A, “Hexaalkylmelamine-amino-oxy compounds” (priority 1984, dated 1986).

Structures can show the parent of a compound that is named as a salt.

One series has as its system human pulmonary tumors. As to conditions: cited from earlier work.
For series [1], the system named is N.C.I. animal anti-tumor screening systems. As to conditions: in vivo; cited from earlier work.
For the next series, the system named is ovarian cancer. As to conditions: clinical; cited from earlier work.
The subject of another series is human renal tumors. As to conditions: cited from earlier work.
For another series, the system named is human disease. As to conditions: in vivo; cited from earlier work.
The subject of series [2] is advanced ovarian adenocarcinoma. As to conditions: concurrent use with cyclophosphamide, methotrexate and 5-fluorouracil; cited from earlier work.
For series [3] the following is noted: vs HMM; background statement; cited from earlier work.
In another series the test system is A-549 lung carcinoma. As to the kind of experiment: Inhibition of colony formation by human tumor cell line A-549 (lung carcinoma), long-term exposure. Type of series: cell-based. As to conditions: Homo sapiens, A549, 216 h, 9 days, read-out: Percent survival (number of colonies in test dishes to colonies in control dishes times 100). The method, then: (§1) Cytotoxic activity of O-HMM against in vitro human tumor cells was measured as inhibition of colony formation and the results expressed as a ratio of the number of colonies in test dishes to number of control dishes, times 100 (Table 4).
(§2) Inhibition of colony formation by human tumor
(§3) ^a Percent survival as measured by the number of colonies in test

The subject of the next series is A-204 rhabdomysarcoma. As to the kind of experiment: Inhibition of colony formation by human tumor cell line A-204 (rhabdomysarcoma), long-term exposure. Type of series: cell-based. As to conditions: Homo sapiens, A204, 216 h, 9 days, read-out: Percent survival (number of colonies in test dishes to colonies in control dishes times 100). The method, then:
as §1, §2, §3

The subject of a further series is A-498 renal carcinoma. Briefly: Inhibition of colony formation by human tumor cell line A-498 (renal carcinoma), long-term exposure. The series is classed as cell-based. As to conditions: Homo sapiens, A498, 216 h, 9 days, read-out: Percent survival (number of colonies in test dishes to colonies in control dishes times 100). Here is the method:
as §1, §2, §3

In the next series the test system is A-101D melanoma. As to the kind of experiment: Inhibition of colony formation by human tumor cell line A-101D (melanoma), long-term exposure. As to conditions: Homo sapiens, A101D, 216 h, 9 days, read-out: Percent survival (number of colonies in test dishes to colonies in control dishes times 100). Type of series: cell-based. The method, then:
as §1, §2, §3

Setting [4] is: 150 ug/ml, solubility may be limiting.
[5] abbreviates: 175 ug/ml, solubility may be limiting.
[6] abbreviates: 225 ug/ml, solubility may be limiting.

On to `CN(C)c1nc(N(C)C)nc(N(C)C)n1` [HMM, hexamethylmelamine], for which the “activity against human pulmonary tumors in mice” value in the series with human pulmonary tumors is given as “active”. The “activity in most N.C.I. animal anti-tumor screening systems” value in series [1] is “no demonstrated activity”. Also, the “activity against ovarian cancer” value with ovarian cancer was “significant activity against ovarian cancer”. Besides, the “activity against human renal tumors in mice” value with human renal tumors was “active”. In addition, in the series with human disease, the “activity against human disease” value is “demonstrated activity against human disease”. For the same molecule, the “effectiveness against advanced ovarian adenocarcinoma” value in [2] is listed as “effective against advanced ovarian adenocarcinoma”.

Regarding `CNc1nc(N(C)C)nc(N(C)C)n1` [pentamethylmelamine], in [3], the “solubility compared with HMM” value is on record as “more soluble”.

`CN(C)c1nc(N(C)C)nc(N(C)C)n1` [HMM.HCl, reference compound]: the viability at 10 µg/mL in the series on A-549 lung carcinoma (10 ug/ml) turned out to be 95 ± 5%. For the same molecule, the viability at 20 µg/mL is 93 ± 4% with A-549 lung carcinoma (20 ug/ml), 104 ± 12% in the series on A-204 rhabdomysarcoma (20 ug/ml), 97 ± 6% with A-498 renal carcinoma (20 ug/ml) and 101 ± 4% in the series on A-101D melanoma (20 ug/ml). The viability at 25 µg/mL stood at 91 ± 12% with A-549 lung carcinoma (25 ug/ml), 85 ± 8% in the series on A-204 rhabdomysarcoma (25 ug/ml), 90 ± 12% in the series on A-498 renal carcinoma (25 ug/ml) and 98 ± 11% in the series with A-101D melanoma (25 ug/ml). The viability at 50 µg/mL with A-549 lung carcinoma (50 ug/ml) was 95 ± 8%; with A-204 rhabdomysarcoma (50 ug/ml), 78 ± 15%; in the series on A-498 renal carcinoma (50 ug/ml) it was 75 ± 8%; in the series with A-101D melanoma (50 ug/ml), 92 ± 13%. The viability at 75 µg/mL was 87 ± 11% in the series with A-549 lung carcinoma (75 ug/ml), 62 ± 24% with A-204 rhabdomysarcoma (75 ug/ml), 61 ± 12% in the series on A-498 renal carcinoma (75 ug/ml) and 73 ± 5% in the series with A-101D melanoma (75 ug/ml). In addition, the viability at 100 µg/mL in the series on A-549 lung carcinoma (100 ug/ml) worked out at 86 ± 9%; in the series on A-204 rhabdomysarcoma (100 ug/ml), 55 ± 27%; in the series on A-498 renal carcinoma (100 ug/ml), 50 ± 12%; in the series with A-101D melanoma (100 ug/ml) it was 53 ± 11%. In addition, the viability at 150 µg/mL with A-549 lung carcinoma (setting [4]) is 74 ± 17%; with A-204 rhabdomysarcoma (setting [4]), 35 ± 29%; with A-498 renal carcinoma (setting [4]), 42 ± 18%; in the series on A-101D melanoma (setting [4]) it was 37 ± 8%. Also, the viability at 175 µg/mL amounted to 59 ± 23% in the series on A-549 lung carcinoma (setting [5]), 38 ± 26% in the series with A-204 rhabdomysarcoma (setting [5]), 43 ± 25% with A-498 renal carcinoma (setting [5]) and 38 ± 9% with A-101D melanoma (setting [5]). Besides, the viability at 200 µg/mL with A-549 lung carcinoma (200 ug/ml) was found to be 61 ± 19%; in the series with A-204 rhabdomysarcoma (200 ug/ml), 38 ± 21%; in the series on A-498 renal carcinoma (200 ug/ml), 42 ± 19%; with A-101D melanoma (200 ug/ml), 33 ± 8%. Moreover, the viability at 225 µg/mL in the series on A-204 rhabdomysarcoma (setting [6]) was determined as 40 ± 28%; with A-498 renal carcinoma (setting [6]) it was 41 ± 8%; with A-101D melanoma (setting [6]), 29 ± 6%.
